Data from BigSolDB 2.1.

[NH3+]O.[NH3+]O.[O-]n1nnnc1-c1nnnn1[O-]
solubility (mole fraction)
Conditions | 298.15 K | 303.15 K | 308.15 K | 313.15 K | 318.15 K | 323.15 K | 328.15 K | 333.15 K
in formic acid | 0.00145 | 0.00161 | 0.0018 | 0.00201 | 0.00225 | 0.00254 | 0.00287 | 0.00325
in water | 7.96e-05 | 0.000155 | 0.00024 | 0.000317 | 0.000403 | 0.000489 | 0.00058 | 0.000665
